# Measurements: patent US8309324B2, “Promoters and proteins from Clostridium thermocellum and uses thereof” (University of Rochester, priority 2004, dated 2012)
# Entries after “also recorded” stand apart in the source; their conditions may differ.
# T1: CelR (Thermobifida fusca, UniProt O87590)
# T1 sequence (O87590 1-340): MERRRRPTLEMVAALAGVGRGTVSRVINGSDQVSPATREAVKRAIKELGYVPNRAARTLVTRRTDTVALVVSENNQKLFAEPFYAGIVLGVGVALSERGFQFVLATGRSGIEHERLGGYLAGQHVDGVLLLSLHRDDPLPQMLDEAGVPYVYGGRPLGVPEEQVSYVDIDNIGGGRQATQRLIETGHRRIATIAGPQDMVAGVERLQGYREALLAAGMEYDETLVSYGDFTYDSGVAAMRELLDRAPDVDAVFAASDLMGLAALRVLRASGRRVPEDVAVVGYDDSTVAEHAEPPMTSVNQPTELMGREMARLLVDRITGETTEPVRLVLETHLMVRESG
# Experiments:
# [1] = system: rGlyR3-celC promoter complex; test: EMSA, effect of sugars on the rGlyR3-celC promoter complex; type: binding, Clostridium thermocellum; details: for effect of sugar on the rGlyR3-celC promoter binding reaction: 15 mM sugar, 5 ng 100 bp celC promoter DNA, 0.5 ng rGlyR3, FIG. 17
# Protocol: The EMSA analyzing biotin labeled DNA fragments. Lane 1, no protein and 5 ng DNA; Lanes 2-12 contain 5 ng 100 bp celC promoter DNA, 0.5 ng rGlyR3 and 15 mM of their respected sugars.
# (§1) All EMSA experiments described herein were performed using a 4% polyacrylamide gel and Tris-Borate-EDTA buffer. EMSA reactions all contained: 500 ng poly (dI-dC), 1× Lightshift EMSA kit binding buffer (Pierce), 1× Lightshift loading dye (Pierce), optimized amounts of DNA probe, protein, and saccharides as specified in figure legends.
# The binding of the rGlyR3 protein was inhibited by laminaribiose. Several sugars were tested to see if they could inhibit the rGlyR3-celC promoter complex.
# CelR = biological target: T1, CelR; details: Spiridonov et al. 1999; cited from earlier work
# [2] = system: celC, glyR3, licA, orf4, manB and celT transcripts; test: RT-qPCR, inducibility of gene expression in C. thermocellum grown on different substrates; type: cell-based, Clostridium thermocellum; details: substrate 0.5%, time course of 50 hrs, compared with 1-3 linked sugars, FIG. 2
# Protocol: FIG. 2 is a graph showing RT-qPCR results detailing the inducibility of expression of celC, glyR3 and licA when Clostridium thermocellum is grown on a 1-3 linked sugar: lichenan, laminarin and laminaribiose, compared to the 1-4 linked sugar, cellobiose. The bacterium was grown on the substrates for a time course of 50 hrs. Each 10 hours a sample was taken and the RNA harvested, DNase I digested, subjected to reverse transcription, and then qPCR. Columns left to right for each substrate represent relative transcription levels of celC, glyR3, licA orf4 manB and ceIT, respectively. The qPCR levels are all relative to the 16S transcript in C. thermocellum.
# To test the effect of growth substrate on the inducibility of the expression of celC, glyR3, licA, orf4, manB, and celT genes in C. thermocellum, C. thermocellum was grown on substrates containing either a 1-4 linked sugar (cellobiose) or a 1-3 linked sugar (laminarin, lichenan, and laminaribiose). RT-qPCR was carried out on the cells to determine the level of 16S transcripts of the genes, as follows.
# The bacterium was grown on the substrates for a time course of 50 hrs. Each 10 hrs a sample was taken. Cultures were centrifuged to collect the cells. Everything used from this point forward was RNase free. […] RNA concentration was measured using a Hitachi U-2000 spectrophotometer at 260/280 nm. […]
# [3] = system: rGlyR3-celC promoter complex; test: EMSA rGlyR3 binding site competition assay; design: species or system Clostridium thermocellum; details: 100x unlabeled competitor, 0.5 ng rGlyR3, FIG. 16
# Protocol: FIG. 16 is a gel showing the results of an EMSA rGlyR3 binding site competition assay. A gel shift competition assay was used to analyze specificity of binding and confirm the DNase I footprint results. All lanes contain biotin labeled 100 bp celC promoter fragment containing the binding site. Lane 1, no protein; Lane 2, 0.5 ng rGlyR3; Lane 3, 0.5 ng rGlyR3 and 100× unlabeled 18 bp binding site; Lane 4, 0.5 ng rGlyR3 and 100 × control fragment (18 bp piece of original 100 bp region, contains no part of putative binding site).
# as §1
# The 18 bp sequence corresponds to (SEQ ID NO:36): AATGAACGC GCGTACATT.
# celC transcription = test: In vitro transcription assay (RT-qPCR readout); type: biochemical, Clostridium thermocellum
# Protocol: The baseline transcription mixture consists of: rNTPs, transcription buffer, 1 ug of 850 bp DNA containing celC and its promoter region, 10 ul C. thermocellum cell lysate (grown on cellobiose). After transcription, the RNA was harvested, DNase I digested, used in a Reverse Transcriptase reaction and then in qPCR.
# A DNA template for in vitro transcription was created using the following primers (SEQ ID NO:30): Invt-F-[…]; (SEQ ID NO:31): Invt-R-CCAGTGGGCTTTCTGATGC) to amplify the 200 bp celC promoter along with 650 bp of the celC gene. PCR used a standard reaction for Extensor Hi-Fidelity Enzyme with genomic DNA as template. Each in vitro transcription assay contained: 10 μl C. thermocellum cell lysate (cellobiose grown culture), 2 μl RNase Out (Invitrogen, Carlsbad, Calif.), 1× RNA polymerase buffer, 1 μg of DNA template, 25 nM rNTP's, differing amounts of rGlyR3, differing amounts of laminaribiose, and DEPC water to a volume of 50 μl. The reactions were incubated at 60° C. for 50 minutes. After incubation the resulting RNA was isolated using the previously described Trizol method. The isolated RNA was subjected to DNase I digestion and a standard reverse transcription reaction as described above. Using the qPCR protocol already outlined, with primers for celC, it was possible to show the amount of transcript created for each reaction.
# [4] = system: 200 bp fragment of the celS structure gene; test: EMSA, rGlyR3 with celS structure gene fragment as probe; type: binding, Clostridium thermocellum; details: FIG. 11, lanes 5 and 6
# Protocol: as §1
# (§2) The dissociation constant was determined as the concentration of GlyR3 needed to shift 50% of the celC promoter region in the EMSA.
# celC promoter region = test: EMSA, binding of rGlyR3 to the celC promoter region; design: species or system Clostridium thermocellum
# Protocol: Gel Shift, or Band Shift Assay, or Electrophoretic Mobility Shift Assay (EMSA) is a technique for studying gene regulation and determining protein:DNA interactions. The assay is based on the observation that complexes of protein and DNA migrate through a non-denaturing polyacrylamide gel more slowly than free DNA fragments or double-stranded oligonucleotides. The gel shift assay is carried out by first incubating a protein(s) (such as nuclear or cell extract) with a 32^P end-labeled DNA fragment containing the putative protein binding site. The reaction products are then analyzed on a non-denaturing polyacrylamide gel. The specificity of the DNA-binding protein for the putative binding site is established by competition experiments using DNA fragments or oligonucleotides containing a binding site for the protein of interest or other unrelated DNA sequences.
# as §1
# EMSA gels were electroblotted onto Biodyne B membrane (Pall Corporation). Signal development was accomplished using the Lightshift Chemiluminescent EMSA kit protocol (Pierce). Kodak Biomax film captured the luminescence for viewing.
# Probes for EMSA were created using PCR with Thermostart Taq (ABgene) as a polymerase. The standard Thermostart protocol was used with varying extension times (1 kb/minute rule always followed) and different annealing temperatures (57° C.-62° C.). Primers were synthesized with a 5′ biotin label by Invitrogen (Carlsbad, Calif.). Primers (5′-3′) used: […]
# For probes that contained just the 18 bp binding site, complementary DNA fragments were synthesized and annealed by heating to 94 C and then cooling:
# as §2
molecule,measurement,setting,value
OC[C@H]1O[C@@](CO)(O[C@H]2O[C@H](CO)[C@@H](O)[C@H](O)[C@H]2O)[C@@H](O)[C@@H]1O [sucrose],effect of sugar on the rGlyR3-celC promoter binding reaction,[1],no effect
O=C[C@H](O)[C@@H](O)[C@H](O[C@@H]1O[C@H](CO)[C@@H](O)[C@H](O)[C@H]1O)[C@H](O)CO [cellobiose],concentration inhibiting binding of CelR to its target DNA sequence,CelR,0.2 to 0.5 mM
same,transcript level of the gene cluster relative to 16S transcript,[2],less of the transcript containing the genes is produced
OC[C@H]1O[C@H](O[C@H]2[C@H](O)[C@@H](O)[C@H](O)O[C@@H]2CO)[C@H](O)[C@@H](O)[C@@H]1O [maltose],effect of sugar on the rGlyR3-celC promoter binding reaction,[1],no effect
"unlabeled 18 bp binding site: 18 bp near perfect palindromic sequence of the celC promoter, SEQ ID NO:36: AATGAACGC GCGTACATT (DNA AATGAACGCGCGTACATT; listed as DNA, chemistry not given here)",competition for the shifted band of the 100 bp celC promoter fragment,[3],able to compete out the shifted band
OC[C@H]1O[C@@H](O[C@H]2[C@H](O)[C@@H](CO)OC(O)[C@@H]2O)[C@H](O)[C@@H](O)[C@@H]1O (some centres unmarked) [laminaribiose],effect on celC transcription in presence of GlyR3,"celC transcription; 5 mM laminaribiose in addition to 400 ng GlyR3, FIG. 3",transcription returned to baseline levels or greater
same,effect of sugar on the rGlyR3-celC promoter binding reaction,[1],severely reduced the formation of the DNA-protein complex
same,effect on binding of GlyR3 to the 18 bp binding site,[1]; FIG. 15,inhibited
same,effect of laminaribiose on GlyR3-100 bp celC promoter interaction,"[1]; GlyR3 0.5 ng, DNA 5 ng, increasing laminaribiose, FIG. 9",inhibited; also recorded: DNA-protein complex diminished as the concentration of laminaribiose increased
OC[C@H]1O[C@@H](OC[C@H]2OC(O)[C@H](O)[C@@H](O)[C@@H]2O)[C@H](O)[C@@H](O)[C@@H]1O (some centres unmarked) [gentibiose],effect of sugar on the rGlyR3-celC promoter binding reaction,[1],no effect
OC[C@H]1O[C@@H](O[C@H]2[C@H](O)[C@@H](O)C(O)O[C@@H]2CO)[C@H](O)[C@@H](O)[C@H]1O (some centres unmarked) [lactose],effect of sugar on the rGlyR3-celC promoter binding reaction,[1],no effect
"GlyR3: C. thermocellum LacI-like repressor protein, amino acid sequence SEQ ID NO:3; rGlyR3 is the recombinant form expressed in E. coli (protein, C. thermocellum, rGlyR3 is the recombinant form expressed in E. coli) MTSEEIAKLCGVSRATVSRVINNSPNVKEETRQKILAVIKEKNYVPIAPARRLAGIDSNIIGLFVLDIDISESKSRVSESTYFSRLINLIIDQANNFGFQVLVSIITSQKQLSEIRNLFMSRTIFSGIFIGAFNDEIQLDDDIIMQHPTIIIDRQSERMVKKPNRLVVNLDNFEGAYNATQFLIKLGHTRIGHISGDLRKLSGIERYEGYKKALEDAGLGFDKNLVREGNFLDDSGYRLAREILKENVTAIFCANDVMAISAIKAIKETGLSVPDDISVIGFDNTAIGNYIMPALTTVNAPLEHIAEACIESLKYFCEHKHFKQKEIRVKTDLIIRDSTKRALEF",effect on transcription of the celC gene in vitro,"celC transcription; 400 ng GlyR3, FIG. 3",can inhibit transcription
same,binding to 200 bp fragment of the celS structure gene,[4],does not bind
same,binding to first and second halves of the celC promoter (band shift),"celC promoter region; 0.5 ng rGlyR3, 5 ng of each probe, FIG. 11",creates a shifted band with both probes
same,binding to the 200 bp celC promoter region,"celC promoter region; 1 ng protein, 5 ng DNA, FIG. 12",binds
same,binding to a control fragment of 18 bp located within the celC promoter,celC promoter region; FIG. 13,no binding
same,binding to the 18 bp DNA fragment (binding site),celC promoter region; FIG. 13,dose dependent binding
